Experimental data reported in patent US9266869B2, “Substituted dialkyl(oxido)-lambda4-sulfanylidene nicotinamide derivatives as kinase inhibitors” (Allergan, Inc., priority 2013, dated 2016).

Tests used:
PDGFRβ [1] = target: T1, PDGFRβ (Homo sapiens (Human), UniProt P09619); assay: PDGFRβ Cellular Assay (PDGF-induced intracellular calcium, FLIPR, NHDF-Ad); type: cell-based; conditions: PDGF-BB stimulation (30 ng/mL)
Procedure: (§1) Automated FLIPR (Fluorometric Imaging Plate Reader) technology was used to screen for inhibitors of PDGF-induced increases in intracellular calcium levels in fluorescent dye loaded endothelial cells. NHDF-Ad (Normal Human Dermal Fibroblasts, Adult; Lonza) were seeded in 384-well fibronectin coated black-walled plates overnight @ 37° C./5% CO2. Cells were loaded with calcium indicator Fluo-4 for 45 minutes at 37° C. Cells were washed 2 times (Elx405, Biotek Instruments) to remove extracellular dye. For screening, cells were pre-incubated with test agents for 30 minutes, at a single concentration (10 uM) or at concentrations ranging from 0.0001 to 10.0 uM followed by PDGF-BB stimulation (30 ng/mL). Changes in fluorescence at 516 nm were measured simultaneously in all 384 wells using a cooled CCD camera. Data were generated by determining max-min fluorescence levels for unstimulated, stimulated, and drug treated samples. IC50 values for test compounds were calculated from % inhibition of PDGF-BB stimulated responses in the absence of inhibitor.
Target sequence in this assay (P09619 33-1106): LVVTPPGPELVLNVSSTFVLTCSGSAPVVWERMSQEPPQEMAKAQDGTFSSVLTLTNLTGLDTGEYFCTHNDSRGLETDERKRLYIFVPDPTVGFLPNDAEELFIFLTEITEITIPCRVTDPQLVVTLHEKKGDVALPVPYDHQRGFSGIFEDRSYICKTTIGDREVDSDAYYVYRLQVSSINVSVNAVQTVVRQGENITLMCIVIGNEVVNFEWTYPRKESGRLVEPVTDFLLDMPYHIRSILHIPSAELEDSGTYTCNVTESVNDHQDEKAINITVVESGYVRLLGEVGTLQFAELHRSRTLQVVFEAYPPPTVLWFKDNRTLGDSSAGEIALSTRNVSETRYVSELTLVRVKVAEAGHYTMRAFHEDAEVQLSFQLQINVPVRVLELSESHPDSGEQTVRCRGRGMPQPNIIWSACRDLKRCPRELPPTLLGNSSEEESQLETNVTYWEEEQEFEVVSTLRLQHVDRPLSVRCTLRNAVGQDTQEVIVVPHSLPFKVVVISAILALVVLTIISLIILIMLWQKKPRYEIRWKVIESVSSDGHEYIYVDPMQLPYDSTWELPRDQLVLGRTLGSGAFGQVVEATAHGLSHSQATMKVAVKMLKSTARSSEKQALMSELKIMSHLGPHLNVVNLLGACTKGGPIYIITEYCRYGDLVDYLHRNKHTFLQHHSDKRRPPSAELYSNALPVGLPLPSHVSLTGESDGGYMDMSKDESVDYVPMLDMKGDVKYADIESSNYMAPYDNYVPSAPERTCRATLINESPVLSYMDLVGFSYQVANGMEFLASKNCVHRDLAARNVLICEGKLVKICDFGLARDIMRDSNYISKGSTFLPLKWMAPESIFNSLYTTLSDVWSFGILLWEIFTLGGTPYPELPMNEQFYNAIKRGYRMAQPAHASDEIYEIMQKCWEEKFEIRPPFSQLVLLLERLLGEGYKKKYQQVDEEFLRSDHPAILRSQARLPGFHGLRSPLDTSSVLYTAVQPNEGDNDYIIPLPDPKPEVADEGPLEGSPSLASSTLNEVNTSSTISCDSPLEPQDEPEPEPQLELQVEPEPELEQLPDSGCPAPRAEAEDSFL

VEGFR2 (KDR) = VEGFR2 (KDR) (Homo sapiens (Human), UniProt P35968); assay: VEGFR2 Kinase Assay; type: biochemical; conditions: purified cytoplasmic domain KDR protein, 2.7 μM ATP; read-out: VEGFR2 Enzyme Assay (IC50 nM)
Sequence of VEGFR2 (KDR) (P35968 786-1356): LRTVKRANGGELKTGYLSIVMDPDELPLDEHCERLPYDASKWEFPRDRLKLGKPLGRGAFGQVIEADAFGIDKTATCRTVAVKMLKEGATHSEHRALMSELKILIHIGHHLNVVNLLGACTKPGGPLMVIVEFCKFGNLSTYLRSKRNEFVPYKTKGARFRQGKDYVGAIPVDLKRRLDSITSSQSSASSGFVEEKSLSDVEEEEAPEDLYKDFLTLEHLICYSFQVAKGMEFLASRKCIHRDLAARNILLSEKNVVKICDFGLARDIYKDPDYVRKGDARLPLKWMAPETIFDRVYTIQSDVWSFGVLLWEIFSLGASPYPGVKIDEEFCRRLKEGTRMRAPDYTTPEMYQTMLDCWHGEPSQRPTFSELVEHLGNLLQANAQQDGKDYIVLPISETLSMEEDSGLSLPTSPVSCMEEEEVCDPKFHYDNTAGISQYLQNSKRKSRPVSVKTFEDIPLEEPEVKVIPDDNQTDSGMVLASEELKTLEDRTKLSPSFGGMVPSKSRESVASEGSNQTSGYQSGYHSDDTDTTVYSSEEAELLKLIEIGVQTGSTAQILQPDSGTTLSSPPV
Procedure: VEGFR2 Kinase Assay Biochemical KDR kinase assays were performed in 96 well microtiter plates that were coated overnight with 75 μg/well of poly-Glu-[…]:1) in 10 mM Phosphate Buffered Saline (PBS), pH 7.4. […] Reactions were carried out in 100 μL reaction volumes containing 2.7 μM ATP in kinase buffer (50 mM Hepes buffer pH 7.4, 20 mM MgCl2, 0.1 mM MnCl2 and 0.2 mM Na3VO4). […] Reactions were initiated by the addition 20 ul per well of kinase buffer containing 200-300 ng purified cytoplasmic domain KDR protein (BPS Bioscience, San Diego, Calif.). Following a 15 minute incubation at 30° C., the reactions were washed 2 mls per well PBS-T. 100 μl of a monoclonal anti-phosphotyrosine antibody-peroxidase conjugate diluted 1:10,000 in PBS-T was added to the wells for 30 minutes. Following a 2 mls per well wash with PBS-Tween-20, 100 μl of 0-Phenylenediamine Dihydrochloride in phosphate-citrate buffer, containing urea hydrogen peroxide, was added to the wells for 7-10 minutes as a colorimetric substrate for the peroxidase. […] IC50 values for compound inhibition were calculated directly from graphs of optical density (arbitrary units) versus compound concentration following subtraction of blank values.

VEGF permeability model = assay: VEGF permeability model, intravitreal injection; type: in vivo; conditions: dosed by intravitreal injection
VEGFR2 = VEGFR2 (Homo sapiens (Human), UniProt P35968); assay: VEGFR2 Cellular Assay (VEGF induced intracellular calcium, FLIPR, HUVEC); type: cell-based; conditions: VEGF165 stimulation (10 ng/mL)
Sequence of VEGFR2 (P35968 20-1356): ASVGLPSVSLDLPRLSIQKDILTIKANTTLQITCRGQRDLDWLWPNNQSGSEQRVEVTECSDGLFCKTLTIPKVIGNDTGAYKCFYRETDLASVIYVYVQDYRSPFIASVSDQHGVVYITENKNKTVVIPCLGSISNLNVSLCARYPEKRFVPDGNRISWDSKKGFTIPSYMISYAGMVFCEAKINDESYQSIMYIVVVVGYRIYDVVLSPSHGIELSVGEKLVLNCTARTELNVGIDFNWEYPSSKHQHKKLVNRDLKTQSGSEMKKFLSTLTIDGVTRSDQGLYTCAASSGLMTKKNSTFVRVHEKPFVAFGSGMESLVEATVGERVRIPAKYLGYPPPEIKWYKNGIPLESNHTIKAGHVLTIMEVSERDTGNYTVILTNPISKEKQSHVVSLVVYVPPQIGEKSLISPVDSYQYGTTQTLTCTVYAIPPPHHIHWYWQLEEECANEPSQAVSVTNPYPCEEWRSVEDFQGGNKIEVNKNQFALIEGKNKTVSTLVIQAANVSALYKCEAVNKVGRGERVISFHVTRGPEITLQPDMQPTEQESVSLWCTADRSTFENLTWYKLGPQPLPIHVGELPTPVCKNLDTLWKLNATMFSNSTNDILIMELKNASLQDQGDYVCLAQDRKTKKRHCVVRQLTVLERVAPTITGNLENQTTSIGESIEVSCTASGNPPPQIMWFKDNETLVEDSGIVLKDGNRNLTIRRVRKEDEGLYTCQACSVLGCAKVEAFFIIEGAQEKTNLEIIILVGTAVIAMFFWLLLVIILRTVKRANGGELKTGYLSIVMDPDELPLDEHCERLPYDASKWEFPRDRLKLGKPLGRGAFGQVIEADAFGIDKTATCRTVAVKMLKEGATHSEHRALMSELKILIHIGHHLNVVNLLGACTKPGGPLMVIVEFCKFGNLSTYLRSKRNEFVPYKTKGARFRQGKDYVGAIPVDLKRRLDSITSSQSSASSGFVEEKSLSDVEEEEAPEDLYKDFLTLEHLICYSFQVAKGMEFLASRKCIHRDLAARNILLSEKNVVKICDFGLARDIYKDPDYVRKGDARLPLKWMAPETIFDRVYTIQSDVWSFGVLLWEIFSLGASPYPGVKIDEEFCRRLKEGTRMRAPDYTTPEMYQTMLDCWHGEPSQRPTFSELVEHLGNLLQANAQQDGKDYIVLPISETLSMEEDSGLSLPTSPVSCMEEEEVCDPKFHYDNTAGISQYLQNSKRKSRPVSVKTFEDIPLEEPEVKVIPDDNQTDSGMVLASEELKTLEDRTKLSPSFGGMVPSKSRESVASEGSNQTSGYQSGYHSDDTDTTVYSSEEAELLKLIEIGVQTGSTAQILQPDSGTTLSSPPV
Procedure: as §1, with “VEGFR2 Cellular Assay Automated” for “Automated”, “of VEGF induced” for “of PDGF-induced”, “cells. HUVEC (human umbilical vein endothelial cells) (Clonetics)” for “cells. NHDF-Ad (Normal Human Dermal Fibroblasts, Adult; Lonza)”, “by VEGF165” for “by PDGF-BB”, “stimulation (10” for “stimulation (30”, “of VEGF” for “of PDGF-BB”

PDGFRβ [2] = target: T1, PDGFRβ; assay: PDGFRβ Kinase Assay; type: biochemical; conditions: purified cytoplasmic domain PDGFR-b protein, 36 μM ATP; read-out: PDGFRβ Enzyme Assay (IC50 nM)
Procedure: Biochemical PDGFRβ kinase assays were performed in 96 well microtiter plates that were coated overnight with 75 μg of poly-Glu-Tyr (4:1) in 10 mM Phosphate Buffered Saline (PBS), pH 7.4.
PBS-T prior to starting the reaction. Reactions were carried out in 100 μL reaction volumes containing 36 μM ATP in kinase buffer (50 mM Hepes buffer pH 7.4, 20 mM MgCl2, 0.1 mM MnCl2 and 0.2 mM Na3VO4). […] Reactions were initiated by the addition 20 ul per well of kinase buffer containing 200-300 ng purified cytoplasmic domain PDGFR-b protein (Millipore). Following a 60 minute incubation at 30° C., the reactions were washed 2 mls per well PBS-T. 100 μl of a monoclonal anti-phosphotyrosine antibody-peroxidase conjugate diluted 1:10,000 in PBS-T was added to the wells for 30 minutes. Following a 2 mls per well wash with PBS-Tween-20, 100 μl of O-Phenylenediamine Dihydrochloride in phosphate-citrate buffer, containing urea hydrogen peroxide, was added to the wells for 7-10 minutes as a colorimetric substrate for the peroxidase. […] IC50 values for compound inhibition were calculated directly from graphs of optical density (arbitrary units) versus compound concentration following subtraction of blank values.
Target sequence in this assay (P09619 554-1106): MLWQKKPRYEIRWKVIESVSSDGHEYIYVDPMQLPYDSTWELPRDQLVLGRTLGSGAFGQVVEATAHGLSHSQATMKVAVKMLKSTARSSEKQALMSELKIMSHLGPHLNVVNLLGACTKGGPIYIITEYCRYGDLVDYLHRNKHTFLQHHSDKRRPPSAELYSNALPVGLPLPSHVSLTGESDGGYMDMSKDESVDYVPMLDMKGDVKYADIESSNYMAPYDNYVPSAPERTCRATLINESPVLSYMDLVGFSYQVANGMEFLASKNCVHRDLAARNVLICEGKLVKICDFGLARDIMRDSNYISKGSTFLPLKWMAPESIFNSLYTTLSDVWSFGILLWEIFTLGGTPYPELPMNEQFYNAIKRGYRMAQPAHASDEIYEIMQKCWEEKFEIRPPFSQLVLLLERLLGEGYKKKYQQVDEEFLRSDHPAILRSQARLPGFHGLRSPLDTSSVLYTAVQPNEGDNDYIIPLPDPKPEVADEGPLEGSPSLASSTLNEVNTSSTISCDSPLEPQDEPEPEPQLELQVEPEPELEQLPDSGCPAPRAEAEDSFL

Question: What does the source list for COC(=O)CCCCS(C)(=O)=NC(=O)c1cnc(N)c(C#Cc2cccc(C(=O)Nc3cccc(C)c3)c2)c1 (centres unmarked) [Example 34, Methyl 5-[N-({6-amino-5-[(3-{[(3-methylphenyl)amino]carbonyl}phenyl)ethynyl]pyridin-3-yl}carbonyl)-S-methylsulfonimidoyl]pentanoate]?
Answer: IC50 (PDGFRβ [1]): 13 nM; IC50 (VEGFR2 (KDR)): 7 nM; in vivo efficacy in the VEGF permeability model (VEGF permeability model): good in vivo efficacy; IC50 (VEGFR2): 2 nM; IC50 (PDGFRβ [2]): 15 nM
